Inhibition and IC50 data for eleven compounds are collected here from patent US10093630B2, “Pyrazole compounds and methods of making and using same” (ABIDE THERAPEUTICS, INC., priority 2014, dated 2018).

Where two headings read alike, the source gives them in different places.

Common to all, as to experiment: In vitro competitive activity-based protein profiling (gel-based, FP-Rh or HT-01 probe)
What all share (format): biochemical

Assay [1] has as its target T1, PLA2G7 (Mus musculus, UniProt Q60963).
T1 construct: Proteomes (mouse brain membrane fraction or cell lysates); from tissue; host or cells: mouse brain membrane fraction (or cell lysates, not specified)
T1 sequence (Q60963 22-440): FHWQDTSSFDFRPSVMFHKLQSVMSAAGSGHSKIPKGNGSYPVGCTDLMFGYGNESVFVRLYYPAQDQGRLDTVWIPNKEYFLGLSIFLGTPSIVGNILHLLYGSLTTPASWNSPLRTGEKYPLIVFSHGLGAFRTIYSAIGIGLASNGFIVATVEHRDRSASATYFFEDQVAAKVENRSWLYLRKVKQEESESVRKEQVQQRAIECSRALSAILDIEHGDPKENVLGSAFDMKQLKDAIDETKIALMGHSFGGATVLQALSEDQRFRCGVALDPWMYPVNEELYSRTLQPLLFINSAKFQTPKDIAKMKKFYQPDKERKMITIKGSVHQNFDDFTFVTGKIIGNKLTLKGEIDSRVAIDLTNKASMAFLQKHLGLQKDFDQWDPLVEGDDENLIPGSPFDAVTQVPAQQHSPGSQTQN
Particulars: for inhibition at 1 µM: 1 μM inhibitor, read-out: % Inhibition at 1 μM, D = PLA2G7; for inhibition at 10 µM: 10 μM inhibitor, read-out: % Inhibition at 10 μM, D = PLA2G7; for IC50: mouse brain membrane fraction or cell lysates, 30 min preincubation at 37° C. Summed up:
(§1)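 Competitive labelling format in mouse brain membrane fractions or lysates at 1.0 mg/mL total protein: compounds preincubate 30 min at 37° C, activity probe FP-Rh or HT-01 then reacts 30 min at 37° C. Gel band fluorescence gives target activity.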

The target of assay [2] is T2, MAGL (Mus musculus, UniProt O35678).
T2 construct: Proteomes (mouse brain membrane fraction or cell lysates); from tissue; host or cells: mouse brain membrane fraction (or cell lysates, not specified)
T2 sequence (O35678 1-303): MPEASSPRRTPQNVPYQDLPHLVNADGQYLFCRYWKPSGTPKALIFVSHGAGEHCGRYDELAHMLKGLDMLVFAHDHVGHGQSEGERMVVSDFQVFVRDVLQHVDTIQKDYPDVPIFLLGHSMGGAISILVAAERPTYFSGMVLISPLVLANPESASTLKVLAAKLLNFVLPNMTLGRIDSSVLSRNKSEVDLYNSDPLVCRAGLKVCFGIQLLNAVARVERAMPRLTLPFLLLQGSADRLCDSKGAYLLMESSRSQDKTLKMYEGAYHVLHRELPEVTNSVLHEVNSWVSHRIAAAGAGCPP
To be noted: for inhibition at 1 µM: 1 μM inhibitor; for inhibition at 10 µM: 10 μM inhibitor; for IC50: mouse brain membrane fraction or cell lysates, 30 min preincubation at 37° C., read-out: Mouse (IC50 value, nM) MAGL. The procedure, abridged: as §1

For assay [3], the target named is T3, ABHD6 (Mus musculus, UniProt Q8R2Y0).
T3 construct: Proteomes (mouse brain membrane fraction or cell lysates); from tissue; host or cells: mouse brain membrane fraction (or cell lysates, not specified)
T3 sequence (Q8R2Y0 1-336): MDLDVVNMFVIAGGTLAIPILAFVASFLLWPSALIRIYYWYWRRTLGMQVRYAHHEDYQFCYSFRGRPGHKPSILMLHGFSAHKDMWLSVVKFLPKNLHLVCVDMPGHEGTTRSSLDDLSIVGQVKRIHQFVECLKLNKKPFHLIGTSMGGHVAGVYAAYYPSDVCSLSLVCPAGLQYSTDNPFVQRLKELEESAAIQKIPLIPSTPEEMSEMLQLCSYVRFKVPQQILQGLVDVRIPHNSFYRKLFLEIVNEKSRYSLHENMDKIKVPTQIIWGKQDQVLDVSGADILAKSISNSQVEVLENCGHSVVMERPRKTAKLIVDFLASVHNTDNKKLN
To be noted: for inhibition at 1 µM: 1 μM inhibitor, read-out: % Inhibition at 1 μM, C = ABHD6; for inhibition at 10 µM: 10 μM inhibitor, read-out: % Inhibition at 10 μM, C = ABHD6; for IC50: mouse brain membrane fraction or cell lysates, 30 min preincubation at 37° C., read-out: Mouse (IC50 value, nM) ABHD6. Summed up: as §1

For assay [4], the target named is T4, FAAH (Mus musculus, UniProt O08914).
T4 construct: Proteomes (mouse brain membrane fraction or cell lysates); from tissue; host or cells: mouse brain membrane fraction (or cell lysates, not specified)
T4 sequence (O08914 1-579): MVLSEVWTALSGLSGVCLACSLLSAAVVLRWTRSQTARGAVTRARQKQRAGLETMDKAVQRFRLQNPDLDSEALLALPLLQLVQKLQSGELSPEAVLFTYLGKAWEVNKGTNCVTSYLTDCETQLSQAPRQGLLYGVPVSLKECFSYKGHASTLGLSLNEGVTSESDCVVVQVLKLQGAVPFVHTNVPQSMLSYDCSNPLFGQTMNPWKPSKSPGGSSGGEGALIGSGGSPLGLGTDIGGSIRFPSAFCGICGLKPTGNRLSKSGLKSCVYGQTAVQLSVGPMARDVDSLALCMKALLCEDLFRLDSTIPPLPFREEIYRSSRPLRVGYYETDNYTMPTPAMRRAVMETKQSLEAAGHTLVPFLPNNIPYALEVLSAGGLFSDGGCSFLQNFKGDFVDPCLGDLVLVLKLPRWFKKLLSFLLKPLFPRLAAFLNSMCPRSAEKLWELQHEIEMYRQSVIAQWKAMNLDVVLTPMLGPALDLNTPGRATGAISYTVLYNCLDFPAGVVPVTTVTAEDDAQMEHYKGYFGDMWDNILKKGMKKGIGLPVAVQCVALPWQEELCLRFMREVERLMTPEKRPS
To be noted: for inhibition at 1 µM: 1 μM inhibitor, read-out: % Inhibition at 1 μM, B = FAAH; for inhibition at 10 µM: 10 μM inhibitor, read-out: % Inhibition at 10 μM, B = FAAH; for IC50: mouse brain membrane fraction or cell lysates, 30 min preincubation at 37° C., read-out: Mouse (IC50 value, nM) FAAH. Summed up:
as §1

As to `CS(=O)(=O)N1CCN(C(=O)n2cc(Cl)cn2)CC1` [Example 184, (4-Chloro-1H-pyrazol-1-yl)(4-(methylsulfonyl)piperazin-1-yl)methanone], the inhibition (in general, the share of the control response that was lost under treatment) at 1 µM in assay [1] is over 75%; in assay [2], under 25%; in assay [3], over 75%; in assay [4], under 25%. Further, the inhibition at 10 µM in assay [1] is over 75%; in assay [2] it was under 25%; in assay [3] it was over 75%; in assay [4], 25 to 75%.

Turning to `Cc1cc(-c2ccccc2)ccc1CN1CCN(C(=O)n2cc(C(=O)N3CCOCC3)cn2)CC1` [Example 57, (4-((3-Methyl-[1,1′-biphenyl]-4-yl)methyl)piperazin-1-yl)(4-(morpholine-4-carbonyl)-1H-pyrazol-1-yl)methanone], the inhibition at 1 µM is under 25% in assay [1], over 75% in assay [2], over 75% in assay [3] and over 75% in assay [4]. Further, the inhibition at 10 µM in assay [1], in assay [2], in assay [3] and in assay [4] was over 75% each time. Besides, the concentration for half-maximal inhibition (IC50) – broadly, the concentration that inhibits the measured activity by half – was 100 to 1000 nM in assay [2], 100 to 1000 nM in assay [3] and under 100 nM in assay [4].

Consider `O=C(N1CCN(Cc2ccccc2N2CCCC2)CC1)n1cc(C(F)(F)F)cn1` [Example 280, (4-(2-(Pyrrolidin-1-yl)benzyl)piperazin-1-yl)(4-(trifluoromethyl)-1H-pyrazol-1-yl)methanone], for which the inhibition at 1 µM in assay [1] (gel-based competitive ABPP), in assay [2] (gel-based competitive ABPP), in assay [3] (gel-based competitive ABPP) and in assay [4] (gel-based competitive ABPP) was over 75% each time. For the same compound, the IC50 was under 100 nM in assay [1], under 100 nM in assay [2], 100 to 1000 nM in assay [3] and 100 to 1000 nM in assay [4].

Take `N#Cc1cnn(C(=O)N2CCOCC2)c1` [Example 205, 1-(Morpholine-4-carbonyl)-1H-pyrazole-4-carbonitrile]: the inhibition at 1 µM in assay [1] is over 75%; in assay [2] it was under 25%; in assay [3], 25 to 75%; in assay [4] it was over 75%. The inhibition at 10 µM is over 75% in assay [1], 25 to 75% in assay [2], over 75% in assay [3] and over 75% in assay [4].

`CNC(=O)c1cnn(C(=O)N2CCN(Cc3cccc(Oc4ccccc4)c3)CC2)c1` [Example 287, N-Methyl-1-(4-(3-phenoxybenzyl)piperazine-1-carbonyl)-1H-pyrazole-4-carboxamide]: the inhibition at 1 µM in assay [1] (gel-based competitive ABPP), in assay [2] (gel-based competitive ABPP), in assay [3] (gel-based competitive ABPP) and in assay [4] (gel-based competitive ABPP) was over 75% in each case. For the same compound, the IC50 in assay [1], in assay [2], in assay [3] and in assay [4] was under 100 nM each time.

`O=C(c1ccccc1)N1CCN(C(=O)n2cc(Cl)cn2)CC1` [Example 187, (4-Benzoylpiperazin-1-yl)(4-chloro-1H-pyrazol-1-yl)methanone]: the inhibition at 1 µM in assay [1] is over 75%; in assay [2] it was 25 to 75%; in assay [3] it was under 25%; in assay [4] it was under 25%. In addition, the inhibition at 10 µM in assay [1] was over 75%; in assay [2] it was over 75%; in assay [3], 25 to 75%; in assay [4] it was over 75%.

Take `O=C(c1cnn(C(=O)N2CCN(Cc3cccnc3)CC2)c1)N1CCOCC1` [Example 53, (4-(Morpholine-4-carbonyl)-1H-pyrazol-1-yl)(4-(pyridin-3-ylmethyl)piperazin-1-yl)methanone]: the inhibition at 1 µM in assay [1] and in assay [3] was under 25% each time. The inhibition at 10 µM in assay [1] is over 75%; in assay [2] it was 25 to 75%; in assay [3] it was over 75%; in assay [4], under 25%.

Regarding `CS(=O)(=O)N1CCCN(C(=O)n2cc(C(F)(F)F)cn2)CC1` [Example 155, (4-(Methylsulfonyl)-1,4-diazepan-1-yl)(4-(trifluoromethyl)-1H-pyrazol-1-yl)methanone], the inhibition at 1 µM in assay [1] was over 75%; in assay [2], under 25%; in assay [3] it was under 25%; in assay [4], 25 to 75%. Further, the inhibition at 10 µM in assay [1] is over 75%; in assay [2], 25 to 75%; in assay [3], over 75%; in assay [4], over 75%.

Turning to `Cc1cc(-c2ccccc2)ccc1CN1CCN(C(=O)n2cc(C(=O)N3CCC3)cn2)CC1` [Example 93, Azetidin-1-yl(1-(4-((3-methyl-[1,1′-biphenyl]-4-yl)methyl)piperazine-1-carbonyl)-1H-pyrazol-4-yl)methanone], the inhibition at 1 µM in assay [1] is under 25%; in assay [2], over 75%; in assay [3] it was over 75%; in assay [4], over 75%. For the same compound, the inhibition at 10 µM in assay [1], in assay [2], in assay [3] and in assay [4] was over 75% in each case. In addition, the IC50 in assay [2] was 100 to 1000 nM; in assay [3], 100 to 1000 nM; in assay [4], under 100 nM.

`O=C(c1cnn(C(=O)N2CCN(Cc3cncnc3)CC2)c1)N1CCCC1` [Example 84, (4-(Pyrimidin-5-ylmethyl)piperazin-1-yl)(4-(pyrrolidine-1-carbonyl)-1H-pyrazol-1-yl)methanone]: the inhibition at 1 µM in assay [1], in assay [2], in assay [3] and in assay [4] was under 25% throughout. Also, the inhibition at 10 µM in assay [1] was over 75%; in assay [2], under 25%; in assay [3], 25 to 75%; in assay [4], under 25%.

Consider `O=C(c1cnn(C(=O)N2CCN(Cc3cccnc3)CC2)c1)N1CCC1` [Example 88, Azetidin-1-yl(1-(4-(pyridin-3-ylmethyl)piperazine-1-carbonyl)-1H-pyrazol-4-yl)methanone], for which the inhibition at 10 µM is over 75% in assay [1], under 25% in assay [2], over 75% in assay [3] and 25 to 75% in assay [4].
